The NIST ThermoML archive (doi:10.1016/j.jct.2012.06.030)

Test: excess molar enthalpy (molar enthalpy of mixing); xn = mol fraction of the nth substance listed
Details: 101 kPa, Liquid, isothermal titration calorimeter

CCCCCC[n+]1ccc2ccccc2c1.N#C[S-] [2-hexylisoquinolinium thiocyanate] + O
Details	excess molar enthalpy [kcal/mol]
303.15 K, x1 = 0.2511	0.0803
303.15 K, x1 = 0.2663	0.0805
303.15 K, x1 = 0.2835	0.0772
303.15 K, x1 = 0.3031	0.071
303.15 K, x1 = 0.3255	0.0609
303.15 K, x1 = 0.3483	0.048
303.15 K, x1 = 0.3744	0.032
303.15 K, x1 = 0.4001	0.0169
303.15 K, x1 = 0.4295	0.000844
303.15 K, x1 = 0.4576	-0.0129
303.15 K, x1 = 0.4895	-0.0268
303.15 K, x1 = 0.5184	-0.0375
303.15 K, x1 = 0.5509	-0.0473
303.15 K, x1 = 0.578	-0.054
303.15 K, x1 = 0.6079	-0.0595
303.15 K, x1 = 0.641	-0.0638
303.15 K, x1 = 0.6779	-0.066
303.15 K, x1 = 0.7193	-0.0655
303.15 K, x1 = 0.7496	-0.0636
303.15 K, x1 = 0.7826	-0.0598
303.15 K, x1 = 0.8185	-0.054
303.15 K, x1 = 0.858	-0.0464
303.15 K, x1 = 0.872	-0.0421
303.15 K, x1 = 0.8864	-0.037
303.15 K, x1 = 0.9014	-0.0318
303.15 K, x1 = 0.9168	-0.027
303.15 K, x1 = 0.9328	-0.0221
303.15 K, x1 = 0.9494	-0.0165
303.15 K, x1 = 0.9666	-0.0104
303.15 K, x1 = 0.9844	-0.00416
308.15 K, x1 = 0.0931	0.0332
308.15 K, x1 = 0.0953	0.0339
308.15 K, x1 = 0.0976	0.0347
308.15 K, x1 = 0.1	0.0355
308.15 K, x1 = 0.1025	0.0363
308.15 K, x1 = 0.1052	0.0372
308.15 K, x1 = 0.1081	0.0381
308.15 K, x1 = 0.111	0.0391
308.15 K, x1 = 0.1142	0.0401
308.15 K, x1 = 0.1175	0.0412
308.15 K, x1 = 0.1211	0.0423
308.15 K, x1 = 0.1248	0.0436
308.15 K, x1 = 0.1284	0.0447
308.15 K, x1 = 0.1321	0.0459
308.15 K, x1 = 0.1361	0.0473
308.15 K, x1 = 0.1403	0.0486
308.15 K, x1 = 0.1448	0.0501
308.15 K, x1 = 0.1496	0.0516
308.15 K, x1 = 0.1547	0.0533
308.15 K, x1 = 0.1602	0.0551
308.15 K, x1 = 0.166	0.057
308.15 K, x1 = 0.1723	0.0589
308.15 K, x1 = 0.1792	0.0612
308.15 K, x1 = 0.1865	0.0636
308.15 K, x1 = 0.1945	0.0661
308.15 K, x1 = 0.2033	0.069
308.15 K, x1 = 0.2128	0.0718
308.15 K, x1 = 0.2233	0.0744
308.15 K, x1 = 0.2349	0.076
308.15 K, x1 = 0.2478	0.0778
308.15 K, x1 = 0.2621	0.0795
308.15 K, x1 = 0.2782	0.0785
308.15 K, x1 = 0.2941	0.0754
308.15 K, x1 = 0.3119	0.0706
308.15 K, x1 = 0.332	0.063
308.15 K, x1 = 0.3549	0.0511
308.15 K, x1 = 0.3772	0.0372
308.15 K, x1 = 0.4025	0.0214
308.15 K, x1 = 0.4262	0.00743
308.15 K, x1 = 0.4529	-0.00703
308.15 K, x1 = 0.4767	-0.0189
308.15 K, x1 = 0.5032	-0.0306
308.15 K, x1 = 0.5328	-0.0421
308.15 K, x1 = 0.5573	-0.05
308.15 K, x1 = 0.5841	-0.0571
308.15 K, x1 = 0.6137	-0.0629
308.15 K, x1 = 0.6464	-0.0672
308.15 K, x1 = 0.6827	-0.0693
308.15 K, x1 = 0.7091	-0.0693
308.15 K, x1 = 0.7376	-0.0674
308.15 K, x1 = 0.7685	-0.0641
308.15 K, x1 = 0.802	-0.059
308.15 K, x1 = 0.8213	-0.0557
308.15 K, x1 = 0.8416	-0.0519
308.15 K, x1 = 0.8628	-0.0471
308.15 K, x1 = 0.883	-0.0418
308.15 K, x1 = 0.9042	-0.0356
308.15 K, x1 = 0.9264	-0.0289
308.15 K, x1 = 0.9497	-0.0213
308.15 K, x1 = 0.9742	-0.0116
